Laboratory results as given in patent US20040033273A1, “Withasol and methods of use” (AyurCore, Inc., priority 2001, published 2004).
Where two headings read alike, the source gives them in different places.

Tests used:
[1] = tested on: BALB/c mouse with ascitic sarcoma (S-180)
Description: A study was then undertaken to determine the kinetics of cyclophosphamide treatment with respect to myelosuppression and immunosuppression. This step four aspect of the protocol establishes a time response curve for cyclophosphamide and determines optimal time for collection of blood samples and evaluation of hematological and serological parameters under the aforementioned conditions.
Mice were antigenically challenged with 0.5 cc of RBC suspension (1.0×10^8 cells/cc), intraperitoneally on day 1 as previously described. Mice from all groups were sensitized with RBC and a challenge dose was given on day 10.
Antibody titres were estimated using 96 well, U-bottom microtiter plates, double diluting serum samples and using 10% Human RBC suspension and complement (guinea pig serum).

[2] = tested on: BALB/c mouse with ascitic sarcoma (S-180); conditions: for survival rate: CP 150 mg/kg ip on day 11, compared with the other dose regimens
[3] = tested on: BALB/c mouse implanted with ascitic sarcoma, CP treated; conditions: for Hb / Platelet Count (×10^3mcl) / RBC Count (×10^6/mcl) / WBC Difference Count (%) Lymphocytes / WBC Difference Count (%) Polymorph / WBC Total Count (×10^3/mcl) / CF Titre (Log2) / HA Titre (Log2) / Difference in Weight (g) from Day 1 to 16: mean +/- SD
Experimental: This example describes dosing studies of WITHASOL in cyclophosphamide (CP) treated antigenically challenged BALB/c mouse animals implanted with ascitic sarcoma.
Following the established protocol, tumor was implanted on day 0. Test drugs as suspensions in 2.0% sterile CMC (vehicle) were prepared by Bio-Ved Laboratories. Antigenically sensitized (day 1) and challenged (day 10) mice, received test substances from day 1 to day 15 per oral route. Animals received appropriate vehicle (2.0% CMC) or CP (150 mg/kg) i.p. on day 11 and blood was collected on day 16. Body weights and gross observations were monitored during treatment.
Four doses, 400 mg/kg, 200 mg/kg, 100 mg/kg and 50 mg/kg of WITHASOL coded as R-1, R-2, R-3 and R-4, respectively, were used for this study. Decoding was done after the study was completed.
Data analysis was carried out using ANOVA single factor @<0.05 for comparison of the groups.

[4] = CP 150 mg/Kg ip day 11 vs vehicle, days 13, 15, 17, 19 and 21
[5] = groups I and II: CP 3.0 mg/kg po days 4 to 19 vs vehicle, blood day 20
[6] = groups III and IV: CP 100 mg/kg ip days 7, 9, 11 vs vehicle, blood day 20
[7] = groups V and VI: CP 150 mg/kg ip day 11 vs vehicle, blood day 20
[8] = Tumor +, CP +: CP 150 mg/kg ip day 11, WITHASOL po day 1-15 at 400 (R-1), 200 (R-2), 100 (R-3), 50 (R-4) mg/kg or vehicle (CP alone), blood day 16
[9] = Tumor +, CP +: CP 150 mg/kg ip day 11, WITHASOL po day 1-15 at 400 (R-1), 200 (R-2), 100 (R-3), 50 (R-4) mg/kg or vehicle (CP alone), day 16
[10] = Tumor −, CP +, vehicle: CP 150 mg/kg ip day 11, blood day 16
[11] = Tumor −, CP +, vehicle: CP 150 mg/kg ip day 11, day 16

Compound: O=P1(N(CCCl)CCCl)NCCCO1 (stereo not drawn) [CP, cyclophosphamide]
- time of maximum myelosuppressive and immunosuppressive effect ([1]; CP 150 mg/Kg ip day 11, day after tumor implantation): day 15, or in between day 15 and day 17
- change in platelet counts ([1]; CP 150 mg/Kg ip day 11 vs vehicle): unaffected
- change in hemagglutinating antibody (HA) titers [1, 4]: decrease
- change in hemolytic antibody titers (complement fixing-CF) [1, 4]: decrease
- change in white blood cell counts ([1]; CP 150 mg/Kg ip day 11 vs vehicle, on day 13 and on day 15): significantly decreased
- change in hemoglobin content ([1]; CP 150 mg/Kg ip day 11 vs vehicle, on day 17): significant decrease
- change in red blood cell counts ([1]; CP 150 mg/Kg ip day 11 vs vehicle, on day 19 (P<0.09)): increased
- tumor relapse ([1]; after a few days of cyclophosphamide treatment (150 mg/Kg ip day 11), animals died from tumor regrowth): Tumor relapse was observed
- tumor regression ([1]; single cyclophosphamide dose of 150 mg/Kg ip on day 11): regression of tumor
- survival rate [2]: maximum survival rate
- survival rate ([2]; listed as cyclophosphamide): greatest survival rate
- change in weight of animals ([2]; all three CP doses (3.0 mg/kg po days 4-19; 100 mg/kg ip days 7, 9, 11; 150 mg/kg ip day 11) vs vehicle, t test): significant decrease
- change in hemoglobin content [2, 5]: no significant change
- change in lymphocytes [2, 5]: no significant change
- change in monocyte counts [2, 5]: significantly increased
- change in neutrophil counts [2, 5]: significantly lowered
- change in platelet counts [2, 5]: no significant change
- change in red cell counts [2, 5]: no significant change
- change in total white cell counts [2, 5]: significantly lowered
- change in hemoglobin content [2, 6]: no significant change
- change in platelet counts [2, 6]: no significant change
- change in red cell counts [2, 6]: no significant change
- change in white cell differential counts [2, 6]: no significant change
- change in white cell total counts [2, 6]: no significant change
- change in hemoglobin content [2, 7]: no significant change
- change in monocytes [2, 7]: no significant change
- change in neutrophils [2, 7]: significant increase
- change in platelet counts [2, 7]: no significant change
- change in red cell counts [2, 7]: no significant change
- change in white cell counts [2, 7]: significant increase
- Survival on Day 16 (Day of Bleeding): No. of Animals Survived ([3]; Tumor +, CP + groups: CP 150 mg/kg ip day 11, WITHASOL po day 1-15 at 400 (R-1), 200 (R-2), 100 (R-3), 50 (R-4) mg/kg or vehicle (CP alone)): 8
- Hb [3, 8]: 12.8 ± 1.03 g/dL
- Platelet Count (×10^3mcl) [3, 8]: 906.0 +/− 312.76 ×10^3mcl
- RBC Count (×10^6/mcl) [3, 8]: 3.79 +/− 0.46 ×10^6/mcl
- WBC Difference Count (%) Lymphocytes [3, 8]: 4.19 +/− 8.70%
- WBC Difference Count (%) Polymorph [3, 8]: 58.1 +/− 8.70%
- WBC Total Count (×10^3/mcl) [3, 8]: 6.2 +/− 2.17 ×10^3/mcl
- CF Titre (Log2) [3, 9]: 3.5 +/− 0.53 Log2
- HA Titre (Log2) [3, 9]: 3.3 +/− 0.89 Log2
- Difference in Weight (g) from Day 1 to 16 ([3]; Tumor +, CP +: CP 150 mg/kg ip day 11, WITHASOL po day 1-15 at 400 (R-1), 200 (R-2), 100 (R-3), 50 (R-4) mg/kg or vehicle (CP alone)): 4.9 ± 2.36 g
- Survival on Day 16 (Day of Bleeding): No. of Animals Survived ([3]; Tumor −, CP +, vehicle (group II)): 10
- Hb [3, 10]: 12.9 ± 1.40 g/dL
- Platelet Count (×10^3mcl) [3, 10]: 1170.2 +/− 152.33 ×10^3mcl
- RBC Count (×10^6/mcl) [3, 10]: 4.04 +/− 0.54 ×10^6/mcl
- WBC Difference Count (%) Lymphocytes [3, 10]: 76.7 +/− 4.35%
- WBC Difference Count (%) Polymorph [3, 10]: 23.3 +/− 4.35%
- WBC Total Count (×10^3/mcl) [3, 10]: 3.6 +/− 0.67 ×10^3/mcl
- CF Titre (Log2) [3, 11]: 4.0 +/− 0.82 Log2
- HA Titre (Log2) [3, 11]: 4.4 +/− 0.52 Log2
- Difference in Weight (g) from Day 1 to 16 ([3]; Tumor −, CP +, vehicle: CP 150 mg/kg ip day 11): 0.4 ± 0.52 g
- change in body weights ([3]; groups I and II: CP 150 mg/kg ip day 11 in tumor-free animals): decreased
